Results taken from patent US9113629B2, “4-amino-6-(4-substituted-phenyl)-picolinates and 6-amino-2-(4-substituted-phenyl)-pyrimidine-4-carboxylates and their use as herbicides” (DOW AGROSCIENCES LLC, priority 2013, dated 2015).
Like-named read-outs stand apart in the source and are kept apart here.

Experiments:
[1] = Post-emergent Test III, herbicidal activity in wheat and barley; format: in vivo, Lolium multiflorum, Lolium rigidum; details: Lolium multiflorum, post-emergence, 504 h, read-out: Visual Growth Reduction (%) 21 Days After Application LOLSS
Method in brief: (§1)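 GR20, GR50, GR80 and GR90 come from probit analysis of visual injury scores (0 = none, 100 = complete kill) taken 21 d after treatment. Foliar application was by track sprayer delivering 187 L/ha at five rates, from high down to 1/16×, onto greenhouse plants at the 2–3 leaf stage, with solvent-blank controls.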

[2] = test system: APESV: bentgrass (Apera spica-venti); assay: as above; format: in vivo
Method in brief: as §1

[3] = test system: BROTE: downy brome (Bromus tectorum); assay: as above; format: in vivo
Method in brief: as §1

[4] = test system: KCHSC: kochia (Kochia scoparia); assay: as above; format: in vivo; details: for pest or weed control at 35 g/ha / pest or weed control at 70 g/ha: Bassia scoparia, post-emergence, 504 h; for pest or weed control at 35 g/ha: 35 g ai/ha; for pest or weed control at 70 g/ha: 70 g ai/ha; for GR50 KCHSC / GR80 KCHSC: probit analysis
Method in brief: as §1

[5] = test system: LOLSS: ryegrass including, Italian ryegrass (Lolium multiflorum), rigid ryegrass (Lolium rigidum), annual ryegrass (Lolium multiflorum subsp. Gaudini); assay: as above; format: in vivo; details: probit analysis, 21 days after application
Method in brief: as §1

[6] = test system: MATSS: scented mayweed (Matricaria chamomilla), pineappleweed (Matricaria matricarioides); assay: as above; format: in vivo; details: for pest or weed control at 35 g/ha / pest or weed control at 70 g/ha: Matricaria chamomilla, post-emergence, 504 h; for pest or weed control at 35 g/ha: 35 g ai/ha; for pest or weed control at 70 g/ha: 70 g ai/ha; for GR50 MATSS / GR80 MATSS: probit analysis
Method in brief: as §1

[7] = test system: HORSS: barley, including spring and winter (Hordeum vulgare); assay: as above; format: in vivo; details: 21 days after application
Method in brief: as §1

[8] = test system: TRZSS: wheat, including spring and winter (Triticum aestivum); assay: as above; format: in vivo; details: 21 days after application
Method in brief: as §1

[9] = test system: VERPE: bird's-eye speedwell (veronica persica); assay: as above; format: in vivo; details: 21 days after application
Method in brief: as §1

[10] = probit analysis, dose for growth reduction of 50 percent, 21 days after application
[11] = probit analysis, dose for growth reduction of 80 percent, 21 days after application
[12] = read-out: Visual Growth Reduction (%) 21 Days After Application KCHSC
[13] = dose for growth reduction of 50 percent, 21 days after application
[14] = dose for growth reduction of 80 percent, 21 days after application
[15] = read-out: Visual Growth Reduction (%) 21 Days After Application MATSS
[16] = probit analysis, dose for 20 percent growth reduction (crop)
[17] = 21 days after application, read-out: Visual Gorowth Reduction (%) 21 days After Application KCHSC
[18] = dose for 50 percent growth reduction, 21 days after application
[19] = dose for 80 percent growth reduction, 21 days after application
[20] = 21 days after application, read-out: Visual Gorowth Reduction (%) 21 days After Application MATSS

Nc1c(F)c(-c2ccc(C(F)(F)F)c(F)c2F)nc(C(=O)O)c1Cl [Compound 167]
pest or weed control at 35 g/ha ([1]; 35 g ai/ha): 0 to 29% | pest or weed control at 70 g/ha ([1]; 70 g ai/ha): 0 to 29% | pest or weed control at 35 g/ha ([2]; Apera spica-venti, post-emergence, 504 h, 35 g ai/ha, read-out: Visual Growth Reduction (%) 21 Days After Application APESV): 75 to 84% | pest or weed control at 70 g/ha ([2]; Apera spica-venti, post-emergence, 504 h, 70 g ai/ha, read-out: Visual Growth Reduction (%) 21 Days After Application APESV): 85 to 94% | GR50 APESV [2, 10]: 20 g ai/ha | GR80 APESV [2, 11]: 46 g ai/ha | pest or weed control at 35 g/ha ([3]; Bromus tectorum, post-emergence, 504 h, 35 g ai/ha, read-out: Visual Growth Reduction (%) 21 Days After Application BROTE): 30 to 44% | pest or weed control at 70 g/ha ([3]; Bromus tectorum, post-emergence, 504 h, 70 g ai/ha, read-out: Visual Growth Reduction (%) 21 Days After Application BROTE): 75 to 84% | GR50 BROTE [3, 10]: 43 g ai/ha | GR80 BROTE [3, 11]: 81 g ai/ha | pest or weed control at 35 g/ha [4, 12]: 60 to 74% | pest or weed control at 70 g/ha [4, 12]: 75 to 84% | GR50 KCHSC [4, 13]: 23 g ai/ha | GR80 KCHSC [4, 14]: 52 g ai/ha | GR50 LOLSS ([5]; dose for growth reduction of 50 percent): >140 g ai/ha | GR80 LOLSS ([5]; dose for growth reduction of 80 percent): >140 g ai/ha | pest or weed control at 35 g/ha [6, 15]: 75 to 84% | pest or weed control at 70 g/ha [6, 15]: 85 to 94% | GR50 MATSS [6, 13]: 24 g ai/ha | GR80 MATSS [6, 14]: 48 g ai/ha

COC(=O)c1nc(-c2ccc(Br)c(F)c2)c(F)c(N)c1Cl [Compound 49]
pest or weed control at 35 g/ha ([7]; Hordeum vulgare, post-emergence, 504 h, 35 g ai/ha, read-out: Visual Gorowth Reduction (%) 21 days After Application HORSS): 75 to 84% | pest or weed control at 70 g/ha ([7]; Hordeum vulgare, post-emergence, 504 h, 70 g ai/ha, read-out: Visual Gorowth Reduction (%) 21 days After Application HORSS): 85 to 94% | GR20 HORSS [7, 16]: 1 g ai/ha | pest or weed control at 35 g/ha [4, 17]: 85 to 94% | pest or weed control at 70 g/ha [4, 17]: 85 to 94% | GR50 KCHSC [4, 18]: 4 g ai/ha | GR80 KCHSC [4, 19]: 18 g ai/ha | pest or weed control at 35 g/ha [6, 20]: 60 to 74% | pest or weed control at 70 g/ha [6, 20]: 75 to 84% | GR50 MATSS [6, 18]: 15 g ai/ha | GR80 MATSS [6, 19]: 93 g ai/ha | pest or weed control at 35 g/ha ([8]; Triticum aestivum, post-emergence, 504 h, 35 g ai/ha, read-out: Visual Gorowth Reduction (%) 21 days After Application TRZSS): 75 to 84% | pest or weed control at 70 g/ha ([8]; Triticum aestivum, post-emergence, 504 h, 70 g ai/ha, read-out: Visual Gorowth Reduction (%) 21 days After Application TRZSS): 85 to 94% | GR20 TRZSS [8, 16]: 1 g ai/ha | pest or weed control at 35 g/ha ([9]; Veronica persica, post-emergence, 504 h, 35 g ai/ha, read-out: Visual Gorowth Reduction (%) 21 days After Application VERPE): 45 to 59% | pest or weed control at 70 g/ha ([9]; Veronica persica, post-emergence, 504 h, 70 g ai/ha, read-out: Visual Gorowth Reduction (%) 21 days After Application VERPE): 60 to 74% | GR50 VERPE ([9]; probit analysis, dose for 50 percent growth reduction): 37 g ai/ha | GR80 VERPE ([9]; probit analysis, dose for 80 percent growth reduction): >140 g ai/ha
